One test relates to keratinocytes. In words: Determination of the keratinocyte proliferation (BrdU incorporation). The following applies: statement in words. In general terms: Uptake of a labelled nucleoside into DNA is a usual measure of proliferation.
The target of a further test is T1, PPARγ (Homo sapiens, UniProt P37231).
T1 sequence (P37231 1-505): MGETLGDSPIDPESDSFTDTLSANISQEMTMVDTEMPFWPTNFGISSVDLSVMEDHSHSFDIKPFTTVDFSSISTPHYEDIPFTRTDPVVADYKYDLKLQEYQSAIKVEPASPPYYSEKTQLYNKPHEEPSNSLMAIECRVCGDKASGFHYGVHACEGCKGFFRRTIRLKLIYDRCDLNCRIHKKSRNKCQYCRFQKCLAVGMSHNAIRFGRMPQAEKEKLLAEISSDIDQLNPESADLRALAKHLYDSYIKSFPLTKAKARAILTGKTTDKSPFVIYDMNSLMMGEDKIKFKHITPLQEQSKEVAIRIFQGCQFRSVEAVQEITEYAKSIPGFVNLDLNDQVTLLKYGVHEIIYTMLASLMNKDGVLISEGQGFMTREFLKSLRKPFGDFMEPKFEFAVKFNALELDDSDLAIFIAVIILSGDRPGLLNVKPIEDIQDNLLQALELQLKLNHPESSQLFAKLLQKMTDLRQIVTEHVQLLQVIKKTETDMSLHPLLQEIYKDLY
In words: Transactivation test (luciferase reporter, cotransfected HeLa cells) via PPARγ. On the technique in general: A reporter such as luciferase makes a cellular process visible.

The target of another test is T2, PPARα (Homo sapiens, UniProt Q07869).
T2 sequence (Q07869 1-468): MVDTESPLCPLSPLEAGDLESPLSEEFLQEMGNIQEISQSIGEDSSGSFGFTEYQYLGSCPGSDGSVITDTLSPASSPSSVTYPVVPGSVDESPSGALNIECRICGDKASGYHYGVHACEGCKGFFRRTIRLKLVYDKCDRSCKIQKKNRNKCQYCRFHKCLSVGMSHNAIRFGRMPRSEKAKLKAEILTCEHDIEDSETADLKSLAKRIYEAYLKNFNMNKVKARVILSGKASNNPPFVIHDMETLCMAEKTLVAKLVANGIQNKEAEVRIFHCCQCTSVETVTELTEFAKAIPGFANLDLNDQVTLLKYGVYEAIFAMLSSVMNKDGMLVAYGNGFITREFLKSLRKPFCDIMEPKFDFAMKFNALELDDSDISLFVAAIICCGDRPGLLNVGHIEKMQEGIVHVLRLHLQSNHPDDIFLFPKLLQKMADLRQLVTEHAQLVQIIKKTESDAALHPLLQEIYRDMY
Put plainly: Transactivation test (luciferase reporter, cotransfected HeLa cells) via PPARα. Particulars: read-out: AC50 (nM) − PPARα; HeLa cells cotransfected with receptor expression vector and PPRE-luciferase reporter, treated for 24 hours.

Data on four compounds can be found in patent publication US6403656B1, “Use of ppar-γ activators in dermatology” (Galderma Research & Development S.N.C, priority 1997, dated 2002).

Regarding `CN(CCOc1ccc(CC2SC(=O)NC2=O)cc1)c1ccccn1` (stereo not shown) [Compound A, 5-{4-[2-(methylpyrid-2-ylamino)-ethoxy]benzyl}thiazolidine-2,4-dione], the “inhibitory activity on the proliferation of keratinocytes” value with keratinocytes is reported as “weak, or even no inhibitory activity”.

In general, AC50 refers to the midpoint of the concentration-response curve, whichever way the signal moves. Turning to `CCCCC/C=C/C=C1/C(=O)C=CC1C/C=C\CCCC(=O)O` (stereo not shown) [Compound E, 15-deoxy-Δ^12,14-prostaglandin J2(15-d PGJ2)], the “R1 (ratio of AC50 relative to PPAR-γ over AC50 relative to PPARα)” value at PPARγ (AC50 PPARγ / AC50 PPARα) stood at 0.082. Also, the AC50 on PPARγ (read-out: AC50 (nM) − PPARγ, HeLa cells cotransfected with receptor expression vector and PPRE-luciferase reporter, treated for 24 hours) was 180 nM; on PPARα, 2200 nM. For the same compound, in the test with keratinocytes, the “inhibitory activity on the proliferation of keratinocytes” value is listed as “weak, or even no inhibitory activity”. In the case of `CCOC(Cc1ccc(OCCN(C)c2nc3ccccc3o2)cc1)C(=O)O` (single isomer, unassigned; (+)) [Compound C, (+)-3-{4-[2-(benzoxazol-2-ylmethylamino)-ethoxy]phenyl}-2-ethyoxypropionic acid], at PPARα, the AC50 was 4600 nM. For `CCOC(Cc1ccc(OCCN(C)c2nc3ccccc3o2)cc1)C(=O)O` (single isomer, unassigned; (-)) [Compound D, (−)-3-{4-[2-(benzooxazol-2-ylmethylamino)-ethoxy]phenyl}-2-ethyoxypropionic acid], the AC50 at PPARα worked out at 1450 nM.
